In PubChem BioAssay AID2042 (NMMLSC, 2009) one finds EC50 and Ki data, which are given here for 51 molecules.

The test concerns the target GTPase HRas (Homo sapiens) (UniProt P01112). Briefly: activated Ras GTP binding inhibitors, SAR follow-up, biochemical, oxadiazole analogs, activated mutant, multiplex flow cytometry (AID 2042). The following applies: GST-Ras beads, Bodipy-FL-GTP binding; for Ki: measured here: Ki calculated from EC50.

Activity calls are given as the source filed them.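 Rule for the calls: active = EC50 at most 30 µM plus a dose-response curve spanning at least 25% response; inactive = the rest.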

Sequence of GTPase HRas (Homo sapiens) (P01112 whole entry, looked up): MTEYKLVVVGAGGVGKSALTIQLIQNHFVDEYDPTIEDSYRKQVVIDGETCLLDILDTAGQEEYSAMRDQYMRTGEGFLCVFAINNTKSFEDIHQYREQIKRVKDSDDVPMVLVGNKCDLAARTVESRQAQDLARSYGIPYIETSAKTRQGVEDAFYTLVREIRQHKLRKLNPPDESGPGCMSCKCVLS

The term EC50 denotes the concentration that produces a half-maximal response. Regarding `Cc1ccc(C)c(N2CCN(C(=O)CCc3nc(-c4ccccc4Br)no3)CC2)c1`, the EC50 is > 30 µM (inactive).
The same measure, in the same setting: next, `Cc1ccc(C)c(N2CCN(C(=O)CCc3nc(-c4ccc(Cl)cc4)no3)CC2)c1`: > 30 µM (inactive).
A word on the Ki: it is the dissociation constant of the complex between target and ligand, obtained from inhibition or displacement. Turning to `COc1cccc(-c2noc(CCC(=O)N3CCN(c4cc(C)ccc4C)CC3)n2)c1`, the EC50 entry was “inactive” and the Ki is 0.28 µM.
Turning to `Cc1cccc(-c2noc(CCC(=O)N3CCN(c4cc(C)ccc4C)CC3)n2)c1`, the EC50 is > 30 µM (inactive).
As for `COc1ccc(-c2noc(CCC(=O)N3CCN(c4ccccc4C)CC3)n2)cc1`, the EC50 is > 30 µM (inactive).
Turning to `Cc1ccc(C)c(N2CCN(C(=O)CCc3nc(-c4ccccc4Cl)no3)CC2)c1`, the EC50 is > 30 µM (inactive).
The same measure, in the same setting: next, `Cc1ccc(C)c(N2CCN(C(=O)CCc3nc(-c4ccccc4C)no3)CC2)c1`: > 30 µM (inactive); `COc1ccc(-c2noc(CCC(=O)N3CCN(c4ccccc4OC)CC3)n2)cc1`: > 30 µM (inactive); `Cc1ccc(C)c(N2CCN(C(=O)CCc3nc(-c4ccc(N(C)C)cc4)no3)CC2)c1`: > 30 µM (inactive).
Same read-out and setting: then `Cc1ccc(C)c(N2CCN(C(=O)CCc3nc(-c4ccc(F)cc4)no3)CC2)c1`, with > 30 µM (inactive); and `COc1ccc(-c2noc(CCC(=O)N3CCN(c4cccc(F)c4)CC3)n2)cc1`, with > 30 µM (inactive).
Still for that read-out and setting: next, `COc1ccc(-c2noc(CCC(=O)N3CCN(c4ccc(OC)cc4)CC3)n2)cc1`: > 30 µM (inactive); `Cc1ccc(C)c(N2CCN(C(=O)CCc3nc(-c4cccc(C(F)(F)F)c4)no3)CC2)c1`: > 30 µM (inactive).
As for `COc1ccc(-c2ccc(CCC(=O)N3CCN(c4cc(C)ccc4C)CC3)o2)cc1`, the EC50 is > 30 µM (inactive).
Regarding `Cc1ccc(C)c(N2CCN(C(=O)CCc3nc(-c4ccccc4F)no3)CC2)c1`, the EC50 was > 30 µM (inactive).
On the same count and under the same terms, next, `Cc1ccc(C)c(N2CCN(C(=O)CCc3nc(-c4ccc(Br)cc4)no3)CC2)c1`: > 30 µM (inactive); `COc1ccc(-c2noc(CCCC(=O)N3CCN(c4cc(C)ccc4C)CC3)n2)cc1`: > 30 µM (inactive); `COc1ccc(-c2noc(CCC(=O)N3CCN(c4ccc(Cl)cc4)CC3)n2)cc1`: > 30 µM (inactive).
The same measure, in the same setting: then `COc1ccc(-c2noc(CCC(=O)N3CCN(c4ccc(F)cc4)CC3)n2)cc1`, with > 30 µM (inactive).
Consider `COc1ccc(-c2noc(CCC(=O)N3CCN(c4ccccc4F)CC3)n2)cc1`, for which the EC50 entry was “inactive” and the Ki was 0.06 µM.
As to `COc1ccc(-c2noc(CCC(=O)N3CCN(c4ccccc4Br)CC3)n2)cc1`, the EC50 is > 30 µM (inactive).
For the molecule `COc1ccc(-c2noc(CCC(=O)N3CCN(c4cccc(Br)c4)CC3)n2)cc1`, the EC50 was > 30 µM (inactive).
Consider `COc1ccc(-c2noc(CCC(=O)N3CCN(c4ccccc4C(F)(F)F)CC3)n2)cc1`, for which the EC50 was > 30 µM (inactive).
In the case of `COc1ccc(-c2noc(CCC(=O)N3CCN(c4ccc(C)cc4)CC3)n2)cc1`, the EC50 is > 30 µM (inactive).
As to `COc1ccc(-c2noc(CCC(=O)N3CCN(c4ccc(Br)cc4)CC3)n2)cc1`, the EC50 is > 30 µM (inactive).
Still for that read-out and setting: then `Cc1ccc(C)c(N2CCN(C(=O)CCc3nc(-c4cccc(Cl)c4)no3)CC2)c1`, with > 30 µM (inactive); and `Cc1ccc(C)c(N2CCN(C(=O)CCc3nc(-c4ccccc4)no3)CC2)c1`, with > 30 µM (inactive).
Same read-out and setting: then `Cc1ccc(C)c(N2CCN(C(=O)CCc3nc(-c4ccc(C(F)(F)F)cc4)no3)CC2)c1`, with > 30 µM (inactive).
For the molecule `COc1ccc(-c2noc(CCCCC(=O)N3CCN(c4cc(C)ccc4C)CC3)n2)cc1`, the EC50 is > 30 µM (inactive).
In the case of `COc1ccc(-c2noc(CCC(=O)N3CCN(c4cc(C)ccc4C)CC3)n2)cc1`, the EC50 entry was “inactive” and the Ki is 0.12 µM.
For the molecule `COc1ccc(-c2noc(CCC(=O)N3CCN(c4cccc(Cl)c4)CC3)n2)cc1`, the EC50 was > 30 µM (inactive).
Still for that read-out and setting: then `COc1ccc(-c2noc(CCC(=O)N3CCN(c4cccc(OC)c4)CC3)n2)cc1`, with > 30 µM (inactive).
For the molecule `COc1ccc(-c2noc(CC(=O)N3CCN(c4cc(C)ccc4C)CC3)n2)cc1`, the EC50 is > 30 µM (inactive).
For the molecule `COc1ccc(-c2noc(CCC(=O)N3CCN(c4cccc(C)c4)CC3)n2)cc1`, the EC50 is > 30 µM (inactive).
On the same count and under the same terms, next, `COc1ccc(-c2cccc(CCC(=O)N3CCN(c4cc(C)ccc4C)CC3)c2)cc1`: > 30 µM (inactive).
In the case of `COc1ccc(-c2ccc(CCC(=O)N3CCN(c4cc(C)ccc4C)CC3)[nH]2)cc1`, the EC50 was > 30 µM (inactive).
Take `COc1ccc(-c2cc(CCC(=O)N3CCN(c4cc(C)ccc4C)CC3)[nH]n2)cc1`: the EC50 was > 30 µM (inactive).
`COc1ccc(-c2coc(CCC(=O)N3CCN(c4cc(C)ccc4C)CC3)n2)cc1`: the EC50 was > 30 µM (inactive).
Same read-out and setting: then `COc1ccc(-c2noc(CCC(=O)N3CCN(c4ccccc4)CC3)n2)cc1`, with > 30 µM (inactive).
Same read-out and setting: next, `Cc1ccc(-c2noc(CCC(=O)N3CCN(c4cc(C)ccc4C)CC3)n2)cc1`: > 30 µM (inactive).
With `COc1ccc(-c2noc(CCC(=O)N3CCC(c4cc(C)ccc4C)CC3)n2)cc1`, the EC50 is > 30 µM (inactive).
Regarding `COc1ccc(-c2cc(CCC(=O)N3CCN(c4cc(C)ccc4C)CC3)on2)cc1`, the EC50 is > 30 µM (inactive).
`COc1ccc(-c2noc(CCC(=O)N3CCN(c4cccc(C)c4C)CC3)n2)cc1`: the EC50 is > 30 µM (inactive).
Turning to `Cc1ccc(C)c(N2CCN(C(=O)CCc3nc(-c4ccccc4C(F)(F)F)no3)CC2)c1`, the EC50 is > 30 µM (inactive).
`COc1ccc(-c2noc(CCC(=O)N3CCN(c4ccccc4Cl)CC3)n2)cc1`: the EC50 was > 30 µM (inactive).
As for `Cc1ccc(C)c(N2CCN(C(=O)CCc3nc(-c4cccc(F)c4)no3)CC2)c1`, the EC50 was > 30 µM (inactive).
Still for that read-out and setting: next, `COc1ccc(-c2noc(CCC(=O)N3CCN(c4ccc(C(F)(F)F)cc4)CC3)n2)cc1`: > 30 µM (inactive).
The same measure, in the same setting: then `COc1ccccc1-c1noc(CCC(=O)N2CCN(c3cc(C)ccc3C)CC2)n1`, with > 30 µM (inactive).
As to `Cc1ccc(C)c(N2CCN(C(=O)CCc3nc(-c4cccc(Br)c4)no3)CC2)c1`, the EC50 was > 30 µM (inactive).
Same read-out and setting: next, `COc1ccc(-c2noc(CCC(=O)N3CCN(c4cccc(C(F)(F)F)c4)CC3)n2)cc1`: > 30 µM (inactive).
Still for that read-out and setting: then `COc1ccc(-c2ccc(CCC(=O)N3CCN(c4cc(C)ccc4C)CC3)s2)cc1`, with > 30 µM (inactive).
